Target: T1, LSD1 (lysine-specific histone demethylase 1A, KDM1A) (Homo sapiens, UniProt O60341)
T1 construct: recombinant human LSD1 (BPS#50103)
Assay: AlphaScreen demethylase assay with biotinylated histone H3 peptide substrate and purified recombinant LSD1
Format: biochemical

IC50: ~2500 nM
Structure (SMILES): C/C=C(/C=O)[C@@H](CC=O)CC(=O)OCCc1ccc(O)c(O)c1 [oleacein]

Source: publication PMC6683035, “Extra Virgin Olive Oil Contains a Phenolic Inhibitor of the Histone Demethylase LSD1/KDM1A” (Nutrients, 2019)
